Literature values, collected in patent US20090254175A1, “Valved stent for chronic venous insufficiency” (priority 2008, published 2009).

SMILES	solubility in acetic acid	solubility in acetone and glacial acetic acid (acetone and glacial acetic acid, compared with alcohol)	solubility in alcohol	solubility in water (water)
C[C@H](CCC(=O)O)[C@H]1CC[C@H]2[C@@H]3CC[C@@H]4C[C@H](O)CC[C@]4(C)[C@H]3C[C@H](O)[C@]12C [Deoxycholic acid]	soluble	to a lesser extent	soluble	sparingly soluble
C[C@H](CCC(=O)O)[C@H]1CC[C@H]2[C@@H]3[C@@H](O)C[C@@H]4C[C@H](O)CC[C@]4(C)[C@H]3CC[C@]12C [ursodeoxycholic acid, reference compound]	soluble	–	soluble	–
